From paper PMC8064491, “Design and Synthesis of Novel Symmetric Fluorene-2,7-Diamine Derivatives as Potent Hepatitis C Virus Inhibitors” (Pharmaceuticals, 2021)
Read-outs that look alike come from different tables or passages of the source.

Experiments:
[1] = test system: HCV subgenomic reporter replicon of genotype 1b (strain Con1); test: Anti-HCV 1b activity, luciferase reporter replicon assay in Huh5-2 cells; type: cell-based, Hepatitis C virus; conditions: for EC50: read-out: HCV Replicon 1b EC50; for fold more potent than six-membered congeners: 1, 9, 17, 21 vs 29, 30, 31, 32 respectively; for HCV Replicon 1b SI50: SI50 = CC50/EC50
Experimental: (§1) The HCV RNA replication inhibitory effect of the novel compounds and their impact on cell viability was tested in the stable cell line Huh5-2 carrying an HCV subgenomic reporter replicon of genotype 1b (strain Con1). The viral replication level was measured in terms of the activity of the co-expressed firefly luciferase (F-Luc). Several concentrations of the tested compounds were prepared in a cell culture medium and were used to treat the cells for 72 h. The solvent DMSO was added as a control with a final concentration of 0.2% so as not to impact viral replication (data not shown). First, different compound concentrations of up to 100 μM were evaluated for their effect on cell viability; results are reported as the median cytotoxic concentration (CC50). Next, all compounds were screened for their anti-HCV activity at a concentration of 1 µM, and compounds showing ≥50% activity were further tested in several concentrations to calculate the median effective concentration (EC50) values (Table 1 and Table 2). The anti-HCV activity of the analogs 1–32 was estimated by quantifying luciferase activity resulting from viral replication. Cytotoxicity was determined by measuring the intracellular levels of ATP. The selectivity index (SI50) was calculated as the ratio of CC50 to EC50 and was calculated as an indication of the compounds’ safety. We used daclatasvir as a positive control.
(§2) The stable replicon cell line Huh5-2 (genotype 1b; Con1) (kindly provided by R. Bartenschlager, Heidelberg University, Germany) has been described previously. The stable cell lines Huh7.5-3a and Huh7.5-4a have been constructed with the subgenomic reporter replicons of HCV 3a (S52) S52-SG(Feo)(AII) and HCV 4a (ED43) ED43-SG(Feo)(VYG) (kindly provided by C.M. Rice, The Rockefeller University, NY). Cells were cultured in high glucose (25 mM) Dulbecco’s modified minimal essential medium (Invitrogen), supplemented with 2 mM L-glutamine, 0.1 mM non-essential amino acids, 100 U/mL penicillin, 100 µg/mL streptomycin, and 10% (v/v) fetal calf serum (referred to as complete DMEM). Complete DMEM was supplemented with G418 at 500 μg/mL for Huh5-2, 750 μg/mL for Huh7.5-3a, and 350 μg/mL for Huh7.5-4a.
(§3) Cells were treated with serial dilutions of the test compounds or the solvent DMSO for 72 h. Antiviral activity and cytotoxicity were determined by measuring virus-derived luciferase activity or intracellular ATP levels, respectively. The median effective concentration (EC50) of the compounds, reducing luciferase signal by 50%, and their median cytotoxic concentration (CC50), causing 50% cell death, were determined by nonlinear regression analysis using the Prism 6.0 software (GraphPad Software Inc.). Daclatasvir was kindly provided by Dr. Marc Windisch (Institut Pasteur Korea).
Firefly luciferase activity was measured using Luciferase Assay System (Promega), according to the manufacturer’s instructions. Measurements were performed with a GloMax 20/20 single tube luminometer (Promega) for 10 s. Values were normalized to total protein amounts as quantified by Bradford assay (Pierce).

[2] = test system: Huh5-2 cells; test: Cytotoxicity by intracellular ATP levels; type: cell-based; conditions: 72 h, read-out: HCV Replicon 1b CC50
Experimental: as §1, §3
(§4) ATP was measured using the ViaLight HS BioAssay kit (Lonza) according to the manufacturer’s protocol in a GloMax 20/20 single-tube luminometer (Promega) for 1 s. Values were normalized to total protein amounts.

[3] = Cytotoxicity by intracellular ATP levels; type: cell-based; conditions: human, Huh5-2 cells, read-out: HCV Replicon 1b CC50
Experimental: as §1, §3, §4

[4] = test system: HCV subgenomic replicon of genotype 3a (strain S52); test: Anti-HCV 3a activity, replicon assay in Huh7.5-3a cells; type: cell-based, Hepatitis C virus; conditions: Hepatitis C virus; Huh7.5-3a cells; read-out: EC50 GT 3a
From the text: Compound 26, showing the highest activity on genotype 1b was further tested against HCV 3a and 4a replicons. The fact that genotype 4 is highly heterogeneous, of less response to DAAs, and the most prevalent genotype in Egypt, made this genotype of specific interest. Moreover, genotype 3 is the most difficult to treat genotype using DAAs, especially in patients with liver cirrhosis. Specifically, Huh7.5-3a and Huh7.5-4a stable cell lines having HCV subgenomic replicons of genotypes 3a (strain S52) and 4a (strain ED43), respectively, were treated with different concentrations of compound 26. […] Further structural optimization is required, and testing compound 26 in combination with other DAAs could improve the clinical outcome.
as §2
Cells were treated with serial dilutions of the test compounds or the solvent DMSO for 72 h. Antiviral activity and cytotoxicity were determined by measuring virus-derived luciferase activity or intracellular ATP levels, respectively. […]
Firefly luciferase activity was measured using Luciferase Assay System (Promega), according to the manufacturer’s instructions. […] Values were normalized to total protein amounts as quantified by Bradford assay (Pierce).

[5] = Huh5-2 cells, 72 h, luciferase activity
[6] = Hepatitis C virus, Huh-5-2, 72 h

Row | Compound | EC50 [1, 5] | CC50 [2] | HCV Replicon 1b SI50 [1] | CC50 at 72 h [3] | EC50 [1, 6] | further results
1 | Dibenzyl((2S,2’S)-((2S,2’S)-(((9H-fluorene-2,7-diyl)bis(azanediyl))bis(carbonyl))bis(pyrrolidine-2,1-diyl))bis(4-methyl-1-oxopentane-1,2-diyl))dicarbamate [Compound 20] | > 1000 nM | 98700 nM |  |  |  | 
2 | Dimethyl((2S,2’S)-((2S,2’S)-(((9H-fluorene-2,7-diyl)bis(azanediyl))bis (carbonyl)) bis(pyrrolidine-2,1-diyl))bis(4-methyl-1-oxopentane-1,2-diyl))dicarbamate [Compound 17] | 10.7 nM | > 100000 nM | >9381 |  |  | fold more potent than six-membered congeners ([1]; HCV 1b EC50 ratio): 28 fold
3 | Dibenzyl((2S,2’S)-((2S,2’S)-(((9H-fluorene-2,7-diyl)bis(azanediyl))bis(carbonyl))bis(pyrrolidine-2,1-diyl))bis(3-methyl-1-oxopentane-1,2-diyl))dicarbamate [Compound 12] | > 1000 nM | 46400 nM |  |  |  | 
4 | COC(=O)N[C@H](C(=O)N1CCC[C@H]1c1nc(-c2ccc(-c3ccc(-c4c[nH]c([C@@H]5CCCN5C(=O)[C@@H](NC(=O)OC)C(C)C)n4)cc3)cc2)c[nH]1)C(C)C [Daclatasvir, reference compound] |  |  | 655,556 | 17700 nM |  | EC50 ([1]; Hepatitis C virus, Huh-5-2, Huh5-2 cells, 72 h, luciferase activity): 0.027 nM; EC50 [4]: 8.3 nM
5 | Diethyl((2S,2’S)-((2S,2’S)-(((9H-fluorene-2,7 diyl)bis(azanediyl))bis(carbonyl)) bis(pyrrolidine-2,1-diyl))bis(4-methyl-1-oxopentane-1,2-diyl))dicarbamate [Compound 18] | 151 nM | > 100000 nM | >664 |  |  | 
6 | Dimethyl((2S,2’S)-((2S,2’S)-(((9H-fluorene-2,7-diyl)bis(azanediyl))bis(carbonyl))bis(pyrrolidine-2,1-diyl))bis(3-methyl-1-oxopentane-1,2-diyl))dicarbamate [Compound 9] | 27.5 nM | > 100000 nM | >3636 |  |  | fold more potent than six-membered congeners ([1]; HCV 1b EC50 ratio): 11 fold; times less active than R congener compound 13 ([1]; HCV 1b EC50 ratio): around 340 times
7 | Diethyl((2S,2’S)-((2S,2’S)-(((9H-fluorene-2,7-diyl)bis(azanediyl))bis(carbonyl))bis(pyrrolidine-2,1-diyl))bis(3-methyl-1-oxopentane-1,2-diyl))dicarbamate [Compound 10] | 0.137 nM | 85500 nM | 622,344 |  |  | fold more potent than congener with D-leucine moiety ([1]; HCV 1b EC50 ratio): 18 fold
8 | COC(=O)N[C@H](C(=O)N1CCC[C@H]1C(=O)Nc1ccc2c(c1)Cc1cc(NC(=O)[C@@H]3CCCN3C(=O)[C@@H](NC(=O)OC)c3ccccc3)ccc1-2)c1ccccc1 [Compound 21, Dimethyl((1S,1’S)-((2S,2’S)-(((9H-fluorene-2,7diyl)bis(azanediyl))bis(carbonyl))bis(pyrrolidine-2,1-diyl))bis(2-oxo-1-phenylethane-2,1-diyl))dicarbamate] |  |  | 10,298 | 87500 nM | 8.5 nM | fold more potent than six-membered congeners ([1]; HCV 1b EC50 ratio): 36 fold
9 | CCCCOC(=O)N[C@H](C(=O)N1CCC[C@H]1C(=O)Nc1ccc2c(c1)Cc1cc(NC(=O)[C@@H]3CCCN3C(=O)[C@@H](NC(=O)OCCCC)c3ccccc3)ccc1-2)c1ccccc1 [Compound 23, Dibutyl((1S,1’S)-((2S,2’S)-(((9H-fluorene-2,7-diyl)bis(azanediyl))bis(carbonyl))bis(pyrrolidine-2,1-diyl))bis(2-oxo-1-phenylethane-2,1-diyl))dicarbamate] |  |  | >44,444 | > 100000 nM | 2.25 nM | 
10 | CC(C)[C@@H](NC(=O)OCc1ccccc1)C(=O)N1CCC[C@H]1C(=O)Nc1ccc2c(c1)Cc1cc(NC(=O)[C@@H]3CCCN3C(=O)[C@H](NC(=O)OCc3ccccc3)C(C)C)ccc1-2 [Compound 8, Dibenzyl((2R,2’R)-((2S,2’S)-(((9H-fluorene-2,7-diyl)bis(azanediyl))bis(carbonyl))bis(pyrrolidine-2,1-diyl))bis(3-methyl-1-oxobutane-1,2-diyl))dicarbamate] |  |  | >2202 | > 100000 nM | 45.4 nM | 
11 | COC(=O)N[C@@H](C(=O)N1CCC[C@H]1C(=O)Nc1ccc2c(c1)Cc1cc(NC(=O)[C@@H]3CCCN3C(=O)[C@H](NC(=O)OC)c3ccccc3)ccc1-2)c1ccccc1 [Compound 25, Dimethyl((1R,1’R)-((2S,2’S)-(((9H-fluorene-2,7-diyl)bis(azanediyl))bis(carbonyl))bis(pyrrolidine-2,1-diyl))bis(2-oxo-1-phenylethane-2,1-diyl))dicarbamate] |  |  | 669,874 | 95400 nM | 0.142 nM | fold more active than S counterparts ([1]; 25 vs 21, 26 vs 22, HCV 1b EC50 ratio): 60 fold; times less potent than compound 26 ([1]; HCV 1b EC50 ratio): four times less potent
12 | CCOC(=O)N[C@H](C(=O)N1CCC[C@H]1C(=O)Nc1ccc2c(c1)Cc1cc(NC(=O)[C@@H]3CCCN3C(=O)[C@@H](NC(=O)OCC)C(C)C)ccc1-2)C(C)C [Compound 2, Diethyl((2S,2’S)-((2S,2’S)-(((9H-fluorene-2,7-diyl)bis(azanediyl))bis(carbonyl))bis(pyrrolidine-2,1-diyl))bis(3-methyl-1-oxobutane-1,2-diyl))dicarbamate] |  |  |  | > 100000 nM | > 1000 nM | 
13 | CCCCOC(=O)N[C@@H](C(=O)N1CCC[C@H]1C(=O)Nc1ccc2c(c1)Cc1cc(NC(=O)[C@@H]3CCCN3C(=O)[C@H](NC(=O)OCCCC)C(C)C)ccc1-2)C(C)C [Compound 7, Dibutyl((2R,2’R)-((2S,2’S)-(((9H-fluorene-2,7-diyl)bis(azanediyl))bis(carbonyl))bis(pyrrolidine-2,1-diyl))bis(3-methyl-1-oxobutane-1,2-diyl))dicarbamate] |  |  | >102 | > 100000 nM | 981 nM | 
14 | CCOC(=O)N[C@@H](C(=O)N1CCC[C@H]1C(=O)Nc1ccc2c(c1)Cc1cc(NC(=O)[C@@H]3CCCN3C(=O)[C@H](NC(=O)OCC)C(C)C)ccc1-2)C(C)C [Compound 6, Diethyl((2R,2’R)-((2S,2’S)-(((9H-fluorene-2,7-diyl)bis(azanediyl))bis(carbonyl))bis(pyrrolidine-2,1-diyl))bis(3-methyl-1-oxobutane-1,2-diyl))dicarbamate] |  |  | 780 | 79600 nM | 102 nM | 
